Read-outs that look alike come from different tables or passages of the source.
Columns and labels:
[1] = rcm bond
β5c of hu c-20S = β5c of hu c-20S (Homo sapiens (Human), UniProt P20618+P28074); assay: IC50 determination against β5c of human constitutive proteasome (suc-LLVY-AMC hydrolysis); format: biochemical; conditions: 0.2 nM c-20S, 25 μM suc-LLVY-AMC;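 further: IC50 obtained by fitting initial reaction velocities to a dose-dependent inhibition model, with SDS present as proteasome activator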
β5i of hu i-20S = β5i of hu i-20S (Homo sapiens (Human), UniProt P20618+P28062); assay: IC50 determination against β5i of human immunoproteasome (Ac-ANW-AMC hydrolysis); format: biochemical; conditions: β5i, 0.4 nM i-20S, 15 μM Ac-ANW-AMC;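 further: enzyme activity taken as the initial reaction velocity per well, with SDS added to activate the proteasome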
[2] = 16-membered ring

| IC50 (β5c of hu c-20S) [µM] | IC50 (β5i of hu i-20S) [µM] | Compound | further results |
| --- | --- | --- | --- |
|  |  | CC(=O)N[C@H]1CC=CCOc2cccc(c2)C[C@@H](C(=O)NCC(F)(F)F)NC(=O)[C@H](CCc2ccccc2)NC1=O | ring closure, yield of all isomers ([1]; from C=CCOc1cccc(C[C@H](NC(=O)[C@H](CCc2ccccc2)NC(=O)[C@H](CC=C)NC(C)=O)C(=O)NCC(F)(F)F)c1, Grubbs 2nd generation catalyst, DCM, 24.9 mM, 40.0 °C, 4.0 h): 88.8% |
|  |  | CC(=O)N[C@H]1Cc2cccc(c2)OCC=CC[C@@H](C(=O)NCC(F)(F)F)NC(=O)[C@H](CCc2ccccc2)NC1=O | ring closure, yield of all isomers ([1]; from C=CCOc1cccc(C[C@H](NC(C)=O)C(=O)N[C@@H](CCc2ccccc2)C(=O)N[C@@H](CC=C)C(=O)NCC(F)(F)F)c1, Grubbs 2nd generation catalyst, DCM, 5.33 mM, 40.0 °C, 4.0 h): 47% |
|  |  | CC(C)(C)OC(=O)[C@@H]1CCCCCC=CCCCC(=O)N[C@@H](CC(=O)OCc2ccccc2)C(=O)N1 | ring closure, yield of all isomers ([1]; from C=CCCCCC[C@H](NC(=O)[C@H](CC(=O)OCc1ccccc1)NC(=O)CCCC=C)C(=O)OC(C)(C)C, Grubbs 2nd Generation catalyst, toluene, 1.27 mM, 40.0 °C, 16.0 h): 92.6% |
|  |  | COC(=O)[C@@H]1CCCCCC=CCCC(Cc2ccccc2)C(=O)N[C@@H](CC(=O)OCc2ccccc2)C(=O)N1 (stereo partly drawn) | ring closure, yield of all isomers ([1]; from C=CCCCCC[C@H](NC(=O)[C@H](CC(=O)OCc1ccccc1)NC(=O)C(CCC=C)Cc1ccccc1)C(=O)OC, Grubbs 2nd generation, 1,2-dichloroethane, 10.75 mM, 50.0 °C, 24.0 h): 53% |
|  |  | O=C(NC1CCCC1)[C@@H]1CC=CCOc2cccc(c2)C[C@H](N2CCCC2=O)C(=O)N[C@@H](CCN2CCC(F)(F)CC2)C(=O)N1 | ring closure, yield of all isomers ([1]; from C=CCOc1cccc(C[C@@H](C(=O)N[C@@H](CCN2CCC(F)(F)CC2)C(=O)N[C@@H](CC=C)C(=O)NC2CCCC2)N2CCCC2=O)c1, Grubbs catalyst 2nd Generation, 1,2-dichloroethane, 5.07 mM, 60.0 °C, 12.0 h): 61.6% |
|  |  | O=C1CCc2cccc(c2)OCC=CC[C@@H](C(=O)NC2CCCC2)NC(=O)[C@H](CC(=O)N2CCCC2C2CC2)N1 (stereo partly drawn) | ring closure, yield of all isomers ([1]; from C=CCOc1cccc(CCC(=O)N[C@@H](CC(=O)N2CCCC2C2CC2)C(=O)N[C@@H](CC=C)C(=O)NC2CCCC2)c1, Grubbs 2nd generation, 1,2-dichloroethane, 4.09 mM, 50.0 °C, 12.0 h): 46.7% |
|  |  | O=C1CCc2cccc(c2)OCC=CC[C@@H](C(=O)NC2CCCC2)NC(=O)[C@H](CCc2ccc(F)cc2)N1 | ring closure, yield of all isomers ([1]; from C=CCOc1cccc(CCC(=O)N[C@@H](CCc2ccc(F)cc2)C(=O)N[C@@H](CC=C)C(=O)NC2CCCC2)c1, Grubbs catalyst 2nd generation, 1,2-dichloroethane, […], 60.0 °C, 12.0 h): 65% |
| 17.9 | > 100 | Cc1ccc(CNC(=O)[C@@H]2Cc3cccc(c3)Oc3cccc(c3)C[C@H](NC(=O)OC(C)(C)C)C(=O)N[C@@H](CCc3ccccc3)C(=O)N2)cc1 [Compound 1-68, tert-Butyl-((5S,8S,11S)-5-((4-methylbenzyl)carbamoyl)-7,10-dioxo-8-phenethyl-2-oxa-6,9-diaza-1,3(1,3)-dibenzenacyclododecaphane-11-yl)carbamate] |  |
| 68.1 | > 100 | COC1(CNC(=O)[C@@H]2Cc3cccc(c3)Oc3cccc(c3)CCC(=O)N[C@@H](CCN3CCOCC3)C(=O)N2)CC1 [Compound 1-90] |  |
| > 100 | 0.96 | O=C1CCc2cccc(c2)Oc2ccc(cc2)CC(C(=O)NCc2cccc3ccccc23)NC(=O)C(CC(=O)N2CCCC2)N1 (stereo not drawn) [Compound 2-03-B, N-(Naphthalen-1-ylmethyl)-7,10-dioxo-8-(2-oxo-2-(pyrrolidin-1-yl)ethyl)-2-oxa-6,9-diaza-1(1,3),3(1,4)-dibenzenacyclododecaphane-5-carboxamide] |  |
| 0.78 | 15.6 | CC(=O)N[C@H]1Cc2cccc(c2)OC/C=C/C[C@@H](C(=O)NCC(F)(F)F)NC(=O)[C@H](CCc2ccccc2)NC1=O [Compound 3-01, (7S,10S,13S,E)-13-Acetamido-9,12-dioxo-10-phenethyl-N-(2,2,2-trifluoroethyl)-2-oxa-8,11-diaza-1(1,3)-benzenacyclotetradecaphan-4-ene-7-carboxamide] |  |
| 0.433 | 5.88 | CC(=O)N[C@H]1Cc2cccc(c2)OCCCC[C@@H](C(=O)NCC(F)(F)F)NC(=O)[C@H](CCc2ccccc2)NC1=O [Compound 3-02, (3S,6S,9S)-3-Acetamido-4,7-dioxo-6-(2-phenylethyl)-N-(2,2,2-trifluoroethyl)-14-oxa-5,8-diazabicyclo[13.3.1]nonadeca-1(19),15,17-triene-9-carboxamide] |  |
| 23.1 | > 10 | COC(=O)C1COCCOc2cccc(c2)CCC(=O)NC(CCc2ccccc2)C(=O)N1 [Compound 3-05, Methyl-(7S,10S)-9,12-dioxo-10-phenethyl-2,5-dioxa-8,11-diaza-1(1,3)-benzenacyclotetradecaphane-7-carboxylate] |  |
| 31.9 | 82 | O=C(NCc1ncco1)[C@@H]1CCCCOc2cccc(c2)C[C@H](N2CCCC2=O)C(=O)N[C@@H](CCc2ccccc2)C(=O)N1 [Compound 3-16] |  |
| 3.4 | 3.5 | O=C1CCc2cccc(c2)OCCCC[C@@H](C(=O)NCc2ccccc2F)NC(=O)[C@H](CCN2CCOCC2)N1 [Compound 3-26] |  |
| 9.5 | > 100 | CN(C)[C@H]1Cc2cccc(c2)OCCCC[C@@H](C(=O)NC2CCCC2)NC(=O)[C@H](CCc2ccc(F)cc2)NC1=O [Compound 3-36] |  |
| 38.6 | > 100 | O=C1CCc2cccc(c2)OCCCC[C@@H](C(=O)NC2CCCC2)NC(=O)[C@H](CCc2ccc(F)cc2)N1 [Compound 3-39, (7S,10S)—N-Cyclopentyl-10-(4-fluorophenethyl)-9,12-dioxo-2-oxa-8,11-diaza-1(1,3)-benzenacyclotetradecaphane-7-carboxamide] |  |
| 56 | > 100 | O=C1CCc2cccc(c2)OCCCC[C@@H](C(=O)NCc2ccccc2F)NC(=O)[C@H](CCc2ccc(F)cc2)N1 [Compound 3-41] |  |
| 75.5 | > 100 | O=C1CCc2cccc(c2)OCCCC[C@@H](C(=O)NC2CCCC2)NC(=O)[C@H](CCN2CCC(F)(F)CC2)N1 [Compound 3-43] |  |
| 5.15 | > 100 | CN(Cc1ccccc1)C(=O)[C@@H]1CCCCOc2cccc(c2)C[C@H](N2CCCC2=O)C(=O)N[C@@H](CCc2ccc(F)cc2)C(=O)N1 [Compound 3-44] |  |
| > 100 | 33.4 | O=C1CCCCCCCCCC[C@@H](C(=O)NCc2cccc3ccccc23)NC(=O)[C@H](CC(=O)N2CCC[C@@H]2c2ccccc2)N1 [Compound 4-08] |  |
| 0.88 | 0.11 | O=C1CCCCCCCCCC[C@@H](C(=O)NCc2ccccc2F)NC(=O)[C@H](CC(=O)N2CCCC2C2COC2)N1 (stereo partly drawn) [Compound 4-17] |  |
|  |  | (2-benzylhex-5-enoyl)-Asp(OBn)-(2-aminonon-8-enoic acid)-OMe? | ring closure, isolated yield ([2]; the molecule shown is the open-chain precursor, rcm bond, Grubbs II, DCE, […], 50.0 °C): 53% |
|  |  | (5S,8S,11S)-11-Acetamido-7,10-dioxo-8-propyl-N-(2,2,2-trifluoroethyl)-2-oxa-6,9-diaza-1,3(1,3)-dibenzenacyclododecaphane-5-carboxamide | ring closure, isolated yield ([2]; amide bond, HATU/DIEA, DMF, […], 0.0 °C): 18.7% |
|  |  | (7S,10S,13S,E)-13-Acetamido-9,12-dioxo-10-phenethyl-N-(2,2,2-trifluoroethyl)-2-oxa-8,11-diaza-1(1,3)-benzenacyclotetradecaphan-4-ene-7-carboxamide | ring closure, isolated yield ([2]; rcm bond, Grubbs II, DCM, 5.3 mM, 40.0 °C): 47% |
|  |  | (hex-5-enoyl)-Asp(OBn)-((2S)-2-aminonon-8-enoic acid)-OtBu? | ring closure, isolated yield ([2]; the molecule shown is the open-chain precursor, rcm bond, Grubbs II, toluene, 1.27 mM, 40.0 °C): 92.6% |
|  |  | Ac-Gly(allyl)-hPhe-Phe(3-OAllyl)-NHCH2CF3? | ring closure, isolated yield ([2]; the molecule shown is the open-chain precursor, rcm bond, Grubbs II, DCM, 24.9 mM, 40.0 °C): 88.8% |

| Compound | IC50 (β5c of hu c-20S) [µM] | IC50 (β5i of hu i-20S) [µM] | further results |
| --- | --- | --- | --- |
| O=C1CCc2cccc(c2)Oc2ccc(cc2)C[C@@H](C(=O)NCc2ccccc2F)NC(=O)[C@H](CC(=O)N2CCCC2)N1 [Compound 2-01-B, (5S,8S)—N-(2-Fluorobenzyl)-7,10-dioxo-8-(2-oxo-2-(pyrrolidin-1-yl)ethyl)-2-oxa-6,9-diaza-1(1,3),3(1,4)-dibenzenacyclododecaphane-5-carboxamide] | 75.4 | 0.845 |  |
| O=C1CCc2cccc(c2)Oc2ccc(cc2)C[C@@H](C(=O)NCc2ccccc2F)NC(=O)[C@H](CC(=O)N2CCC[C@@H]2c2ccccc2)N1 [Compound 2-02-B, (5S,8S)—N-(2-Fluorobenzyl)-7,10-dioxo-8-(2-oxo-2-((R)-2-phenylpyrrolidin-1-yl)ethyl)-2-oxa-6,9-diaza-1(1,3),3(1,4)-dibenzenacyclododecaphane-5-carboxamide] | > 100 | 6.75 |  |
| O=C1CCCCCCCCCC[C@@H](C(=O)NCc2cccc3ccccc23)NC(=O)[C@H](CC(=O)N2CCCC2)N1 [Compound 4-06, (2S,5S)—N-(1-Naphthylmethyl)-3,16-dioxo-2-(2-oxo-2-pyrrolidin-1-yl-ethyl)-1,4-diazacyclohexadecane-5-carboxamide] | > 100 | 3.52 |  |
| O=C1CCCCCCCCC[C@@H](C(=O)NCc2cccc3ccccc23)NC(=O)[C@H](CC(=O)N2CCCC2)N1 [Compound 4-07] | > 100 | 61.3 |  |
| O=C1CCCCCCCCOC[C@@H](C(=O)NCc2cccc3ccccc23)NC(=O)[C@H](CC(=O)N2CCCC2)N1 [Compound 4-15, (3S,6S)—N-(Naphthalen-1-ylmethyl)-5,8-dioxo-6-(2-oxo-2-(pyrrolidin-1-yl)ethyl)-1-oxa-4,7-diazacyclohexadecane-3-carboxamide] | 3.67 | 4.71 |  |
| O=C1CCCCCCCCOC[C@@H](C(=O)NCc2ccccc2F)NC(=O)[C@H](CC(=O)N2CCC[C@@H]2c2ccccc2)N1 [Compound 4-16] | 4.12 | 51.3 |  |

Source: US20240043470A1, “MACROCYCLIC COMPOUNDS AS PROTEASOME INHIBITORS” (CORNELL UNIVERSITY, priority 2017, published 2024)
